Assay results from US20240391956A1, “STAPLED PEPTIDES AND METHODS THEREOF” (FOG PHARMACEUTICALS, INC., priority 2023, published 2024).
pKd: −log10 of the molar value. *1 amine or outer side, *2 acyl side, *3 side chain or, on linkers, in order; H or OH if unused. Where a SMILES comes first, the peptide text is derived from it. Bridges are numbered along the chain shown (N, C = ends). [ ]: non-standard residue; d: D form. Phenylene(1,4-NHCOCH2)2 = O=C(C[*:1])Nc1ccc(NC(=O)C[*:2])cc1

Biological target: T1, CHIP23-303 recombinant protein (Homo sapiens, UniProt Q9UNE7)
T1 construct: 6xHis (N, cleaved yes); TEV site (N, cleaved yes); made in house; host or cells: E. coli BL21 CodonPlus
T1 sequence (Q9UNE7 23-303): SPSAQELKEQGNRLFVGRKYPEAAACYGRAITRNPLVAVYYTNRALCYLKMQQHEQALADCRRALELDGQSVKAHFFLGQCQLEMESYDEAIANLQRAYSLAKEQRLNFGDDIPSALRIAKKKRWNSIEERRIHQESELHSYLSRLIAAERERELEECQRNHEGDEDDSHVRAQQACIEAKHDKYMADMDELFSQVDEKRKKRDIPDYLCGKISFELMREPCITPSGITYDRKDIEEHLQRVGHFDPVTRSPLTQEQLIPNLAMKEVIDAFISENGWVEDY
Assay: Competition fluorescence polarization with CHIP23-303 and HSP70-derived probe 5FAM-bAla-[…]
Assay type: binding
Settings: competition FP, 400 nM CHIP23-303, 20 nM probe, 1 hour at room temperature; read-out: Measured KD
Protocol: For the competition FP of CHIP, stapled peptides at 10 mM in DMSO were serially diluted 1:3 in DMSO for a total of 11 concentrations using a Mosquito LV (SPT Labtech), then diluted 1000-fold in buffer (1×HBS-P+, Cytiva) in duplicate by the Mosquito LV (SPT Labtech) into a black polystyrene 384-well plate (Corning) (11-point three-fold peptide dilution series with top concentration=10 μM). The assay was performed with 400 nM CHIP23-303 recombinant protein as target, and 20 nM BCHIP-binding peptide as probe (5FAM-bAla-[…] (SEQ ID NO: 18), derived from HSP70). The plate was incubated and protected from light for 1 hour at room temperature prior to reading. Reads were performed on a CLARIOstar plate reader (BMG Labtech) with excitation at 485 nm, emission at 525 nm, and cutoff at 504 nm. Data were fitted to a 1:1 binding model with Hill slope using an in-house script.
In some embodiments, CHP polypeptide was prepared as follows: CHIP (residues 23-303 for competition FP and 23-154 for crystallography) with an N-terminal 6×His-TEV tag was recombinantly expressed in E. coli BL21 CodonPlus cells (Agilent) from a pET21b-derived expression vector (Novagen) (“6×His” disclosed as SEQ ID NO: 13). The cells were induced at OD600=0.6 with 1 mM IPTG for 4 hours at 37° C., then harvested and resuspended in 50 mM Tris-HCl pH 8.0, 500 mM NaCl, 10 mM imidazole, 10% glycerol, and 10 mM ß-me. For purification, the pellet was lysed with a tip sonicator with power level set at 400 W, 3 seconds on and 3 seconds off for 20 min, pelleted at 22,000×g for 30 minutes at 4° C. The supernatant was purified with Ni-NTA resin (Qiagen), eluting with 250 mM imidazole. Eluted proteins were pooled, concentrated, and TEV-cleaved by adding TEV protease at a ratio of 1:10 protease to protein and incubated overnight at 4° C. TEV-cleaved proteins were loaded onto a Superdex™ 10/300 75 pg (Cytiva) SEC column, and eluted in 50 mM HEPES, pH 8.0, 150 mM NaCl, 10% glycerol, 2 mM DTT. Fractions containing pure protein were collected, pooled, concentrated to 30 mg/mL and stored at −80° C. […]

SMILES	pKd
CSCC[C@@H](NC(=O)[C@@H](CCC(=O)O)NC(=O)[C@@H](Cc1c[nH]cn1)NC(=O)[C@H]1CCCN1C(C)=O)C(=O)N[C@@H]1CSCC(=O)Nc2ccc(cc2)NC(=O)CSC[C@H](C(=O)N[C@H](CCCNC(=N)N)C(=O)N[C@H](Cc2ccc(O)cc2)C(=O)N[C@H](CO)C(N)=O)NC(=O)[C@@H](Cc2ccc(O)cc2)NC(=O)[C@@H](C)NC(=O)[C@@H](CC(=O)O)NC(=O)[C@@H](C)NC(=O)[C@@H](Cc2c[nH]c3ccccc23)NC(=O)[C@@H](Cc2ccc(O)cc2)NC1=O [H203, Ac-phemcywadaycrys-NH2] (Ac-[dP][dH][dE][dM][dC][dY][dW][dA][dD][dA][dY][dC][dR][dY][dS]-NH2; linker 5-12 via Phenylene(1,4-NHCOCH2)2)	6.26
CC[C@@H](C)[C@@H](NC(=O)[C@H]1CSCC(=O)Nc2ccc(cc2)NC(=O)CSC[C@@H](NC(=O)[C@@H](CC(C)C)NC(=O)[C@@H](CC(=O)O)NC(=O)[C@@H](CC(C)C)NC(=O)[C@H]2CCCN2C(C)=O)C(=O)N[C@H](Cc2ccc(O)cc2)C(=O)N[C@H](Cc2c[nH]c3ccccc23)C(=O)N[C@H](C)C(=O)N[C@H](CO)C(=O)N[C@H](CC(C)C)C(=O)N[C@H](Cc2c[nH]cn2)C(=O)N1)C(=O)N[C@@H](C(=O)N[C@H](CO)C(N)=O)C(C)C [H204, Ac-pldlcywaslhcivs-NH2] (Ac-[dP][dL][dD][dL][dC][dY][dW][dA][dS][dL][dH][dC][dI][dV][dS]-NH2; linker 5-12 via Phenylene(1,4-NHCOCH2)2)	6.11
